Laboratory results published in patent US20050037402A1, “Device and process for direct quantitative in vitro determination of a substance that is contained in a sample” (priority 2003, published 2005).
Values belong to the molecule of their own block, whether it stands above or below them.

Tests used:
[1] = Photophysical characterization of dye-antibody complexes (spectral shifts, fluorescence quantum yields); type: physicochemical; settings: for Absorption Maximum (nm) / Fluorescence Maximum (nm) / Fluorescence Quantum Yield (%): 1 μmol/l dye, 2.4 μmol/l antibody in PBS; for Absorption Maximum (nm) / Fluorescence Maximum (nm): 2 hours at room temperature; for Fluorescence Quantum Yield (%): relative to indocyanine green
Protocol: Dye-antibody complexes based on antibodies with binding to the indotricarbocyanine dye trisodium-3,3-dimethyl-2-{4-methyl-7-[3,3-dimethyl-5-sulfonato-1-(2-sulfonatoethyl)-3H-indolium-2-yl]hepta-2,4,6-trien-1-ylidene}-1-(2-sulfonatoethyl)-2,3-dihydro-1H-indole-5-sulfonate, inner salt, were examined (see Example 1). Solutions of the concentration of 1 μmol/l of the above-mentioned dye and 2.4 μmol/l of the respective antibody in PBS were produced and incubated for 2 hours at room temperature. The absorption maxima were determined with a spectral photometer (Perkin-Elmer, Lambda2). The fluorescence maxima and fluorescence quantum yields were determined with a SPEX fluorolog (wavelength-dependent sensitivity calibrated by lamp and detector) relative to indocyanine green (Q=0.13 in DMSO, J Chem Eng Data 1977, 22, 379, Bioconjugate Chem 2001, 12, 44). From the absorption and fluorescence maxima, the spectral shifts were calculated relative to the maxima of a solution of the above-mentioned dye without antibodies in PBS (1 μmol/l) (absorption max. 754 nm, fluorescence max. 783 nm, fluorescence quantum yield 10%).

[2] = in DMSO; cited from earlier work
[3] = bound by 12-mer peptides; cited from earlier work
[4] = Inhibition-ELISA for binding of the unconjugated dye by selected HuCAL GOLD Fab fragments
Protocol: The purified and concentrated phagemids of the HuCAL GOLD antibody library were used in a standard selection process. As antigens, BSA- or transferrin-coupled ZK203468 were used alternately. The antigens were taken up in PBS and applied at concentrations of 50 μg/ml on Maxisorp™ microtiter plates F96 (Nunc). The maxisorp plates were incubated overnight at 4° C. (“coating”). After the maxisorp plates were blocked with 5% milk powder in PBS, about 2E+13 HuCAL GOLD phages were added to the antigen-loaded, blocked-off spots and incubated there overnight or for two hours at room temperature. After several washing steps, which became more stringent with progressive selection rounds, bonded phages were eluted with 20 mmol of DTT or 100 μmol of unconjugated ZK203468. Altogether, three successive selection rounds were carried out, whereby the phage amplification was carried out between the selection rounds, as described above.
Several thousand clones were isolated after the selection and sub-cloning and tested by means of ELISA in 384-well format for specific detection of the antigens ZK203468-BSA and—transferrin used in panning. Clones identified in this connection were studied in an inhibition-ELISA for efficient binding of the unconjugated dye.

[5] = dye without antibodies in PBS (1 μmol/l)
[6] = relative to the dye without antibodies in PBS (1 μmol/l)

Absorption Maximum (nm) [1]: 754 nm | Fluorescence Maximum (nm) [1]: 783 nm | absorption max. [1, 5]: 754 nm | fluorescence max. [1, 5]: 783 nm | fluorescence quantum yield [1, 5]: 10% | Fluorescence Quantum Yield (%) [1]: 10.0%
Molecule: CC(C=CC=C1N(CCS(=O)(=O)[O-])c2ccc(S(=O)(=O)[O-])cc2C1(C)C)=CC=CC1=[N+](CCS(=O)(=O)[O-])c2ccc(S(=O)(=O)[O-])cc2C1(C)C.[Na+].[Na+].[Na+] [ZK203468, Trisodium-3,3-dimethyl-2-{4-methyl-7-[3,3-dimethyl-5-sulfonato-1-(2-sulfonatoethyl)-3H-indolium-2-yl]hepta-2,4,6-trien-1-ylidene}-1-(2-sulfonatoethyl)-2,3-dihydro-1H-indole-5-sulfonate, Inner Salt]

Molecule: CC1(C)C(/C=C/C=C/C=C/C=C2\N(CCCCS(=O)(=O)O)c3ccc4ccccc4c3C2(C)C)=[N+](CCCCS(=O)(=O)[O-])c2ccc3ccccc3c21 [indocyanine green]
fluorescence quantum yield Q [2]: 0.13

Molecule: Texas Red
red shift of the absorption [3]: 2.8 nm | red shift of the fluorescence [3]: 1.4 nm

binding to the non-conjugated dye ZK203468 [4]: bind efficiently
B1: MOR02965: HuCAL GOLD Fab fragment binding dye ZK203468; protein SEQ-ID NO: 5 (VH-CH) and 6 (VL-CL) (antibody)
heavy: QVQLQQSGPGLVKPSQTLSLTCAISGDSVSSNSAAWSWIRQSPGRGLEWLGRIYYRSKWYNDYAVSVKSRITINPDTSKNQFSLQLNSVTPEDTAVYYCARTSFYQKLFFIAFDHWGQGTLVTVSSASTKGPSVFPLAPSSKSTSGGTAALGCLVKDYFPEPVTVSWNSGALTSGVHTFPAVLQSSGLYSLSSVVTVPSSSLGTQTYICNVNHKPSNTKVDKKVEPKSEFEQKLISEEDLNGAPWSHPQFEK
light: DIALTQPASVSGSPGQSITISCTGTSSDGGAYHYVSWYQQHPGKAPKLMIYGVIYRPSGVSNRFSGSKSGNTASLTISGLQAEDEADYYCAAWDFRKRLNVFGGGTKLTVLGQPKAAPSVTLFPPSSEELQANKATLVCLISDFYPGAVTVAWKADSSPVKAGVETTTPSKQSNNKYAASSYLSLTPEQWKSHRSYSCQVTHEGSTVEKTVAPTEA
modifications: Fab fragment of variable heavy chain; Fab fragment of variable light chain
Absorption Maximum (nm) [1]: 799 nm | Fluorescence Maximum (nm) [1]: 815 nm | Fluorescence Quantum Yield (%) [1]: 13.0% | Absorption Shift (nm) [1, 6]: 45 nm | Fluorescence Shift (nm) [1, 6]: 32 nm
